Test results as given in the supplement of paper PMC10307832.

Legend:
Assay in all cases: relative viability (nuclei count vs DMSO), 5 days (fraction); higher = more cells survive
BAM7 + Decitabine = compound: CCOC1=CC=CC=C1N=NC2=C(NN(C2=O)C3=NC(=CS3)C4=CC=CC=C4)C [BAM7] + Nc1ncn([C@H]2C[C@H](O)[C@@H](CO)O2)c(=O)n1 [Decitabine] (partner 2 µM)
Outline: (§1)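 Lung cancer cell lines in 1536-well plates were dosed by pin tool the day after seeding, either with one drug alone or with a fixed anchor-drug dose plus five library-drug doses (not always all listed) in √10 steps. After 5 days, cells were fixed and their nuclei stained in one step (final 0.05% Triton X-100, 1% formaldehyde, 1 ug/ml Hoechst), then counted on 4× images. Relative viability is the nuclei count in treated wells divided by that in vehicle wells. Values are medians of duplicate plates.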

[1] = compound: CCn1c(-c2nonc2N)nc2c(C#CC(C)(C)O)ncc(OC[C@H]3CCCNC3)c21 + CC1(C)CCC(c2ccc(Cl)cc2)=C(CN2CCN(c3ccc(C(=O)NS(=O)(=O)c4ccc(N[C@H](CCN5CCOCC5)CSc5ccccc5)c(S(=O)(=O)C(F)(F)F)c4)cc3)CC2)C1 [Navitoclax] (partner 0.5 µM)
Outline: as §1

BAM7 + Foretinib = compound: CCOC1=CC=CC=C1N=NC2=C(NN(C2=O)C3=NC(=CS3)C4=CC=CC=C4)C [BAM7] + COc1cc2c(Oc3ccc(NC(=O)C4(C(=O)Nc5ccc(F)cc5)CC4)cc3F)ccnc2cc1OCCCN1CCOCC1 [Foretinib] (partner 0.25 µM)
Outline: as §1

BAM7 + Vorinostat = compound: CCOC1=CC=CC=C1N=NC2=C(NN(C2=O)C3=NC(=CS3)C4=CC=CC=C4)C [BAM7] + O=C(CCCCCCC(=O)Nc1ccccc1)NO [Vorinostat] (partner 1 µM)
Outline: as §1

| Cell Line | relative viability (BAM7 + Decitabine; first compound 0.5 µM) | relative viability (BAM7 + Decitabine; first compound 5 µM) | relative viability (BAM7 + Decitabine; first compound 15.81 µM) | relative viability (BAM7 + Decitabine; first compound 50 µM) | relative viability ([1]; first compound 0.01 µM) | relative viability ([1]; first compound 0.03162 µM) | relative viability ([1]; first compound 0.1 µM) | relative viability ([1]; first compound 0.3162 µM) | relative viability ([1]; first compound 1 µM) | relative viability (BAM7 + Foretinib; first compound 0.5 µM) | relative viability (BAM7 + Foretinib; first compound 5 µM) | relative viability (BAM7 + Foretinib; first compound 15.81 µM) | relative viability (BAM7 + Foretinib; first compound 50 µM) | relative viability (BAM7 + Vorinostat; first compound 0.5 µM) | relative viability (BAM7 + Vorinostat; first compound 5 µM) | relative viability (BAM7 + Vorinostat; first compound 15.81 µM) | relative viability (BAM7 + Vorinostat; first compound 50 µM) |
| --- | --- | --- | --- | --- | --- | --- | --- | --- | --- | --- | --- | --- | --- | --- | --- | --- | --- |
| NCI-H1944 | 0.407 | 0.405 | 0.41 | 0.403 | 1.11 | 0.954 | 1.13 | 1.05 | 1.08 | 0.79 | 0.905 | 0.767 | 0.888 | 0.521 | 0.46 | 0.396 | 0.43 |
| NCI-H1975 | 0.372 | 0.377 | 0.351 | 0.382 | 1.03 | 1.3 | 1.12 | 1.14 | 1.03 | 0.77 | 0.801 | 0.718 | 0.829 | 0.681 | 0.713 | 0.631 | 0.616 |
| NCI-H1993 | 0.582 | 0.633 | 0.498 | 0.551 | 0.943 | 1.01 | 1.04 | 0.767 | 0.961 | 0.73 | 0.738 | 0.717 | 0.708 | 0.723 | 0.765 | 0.71 | 0.696 |
| NCI-H2009 | 0.369 | 0.39 | 0.351 | 0.418 | 1.17 | 1.17 | 1.2 | 1.12 | 1.11 | 1.28 | 1.33 | 1.26 | 1.21 | 0.67 | 0.755 | 0.706 | 0.693 |
| NCI-H2023 | 0.218 | 0.225 | 0.191 | 0.246 | 1.02 | 0.98 | 0.972 | 0.932 | 1.01 | 0.925 | 0.783 | 0.803 | 0.964 | 0.635 | 0.577 | 0.605 | 0.589 |
| NCI-H2085 | 0.558 | 0.549 | 0.47 | 0.604 | 1.12 | 1.09 | 1.1 | 1.08 | 1.07 | 0.973 | 1.18 | 0.743 | 1.19 | 0.824 | 0.654 | 0.74 | 0.822 |
| NCI-H2087 | 0.339 | 0.289 | 0.292 | 0.297 | 0.832 | 1.08 | 0.961 | 1.03 | 1.02 | 1.18 | 1.23 | 0.995 | 1.12 | 0.852 | 0.736 | 0.489 | 0.475 |
| NCI-H2126 | 0.55 | 0.548 | 0.509 | 0.617 | 0.908 | 0.848 | 0.847 | 0.927 | 0.88 | 1.18 | 1.05 | 0.889 | 0.923 | 0.719 | 0.597 | 0.635 | 0.664 |
| NCI-H2170 | 0.411 | 0.436 | 0.405 | 0.432 | 0.613 | 0.585 | 0.64 | 0.493 | 0.529 | 0.973 | 0.994 | 0.91 | 1 | 0.842 | 0.731 | 0.651 | 0.601 |
| NCI-H2347 | 0.598 | 0.736 | 0.641 | 0.606 | 0.849 | 0.751 | 0.813 | 0.796 | 0.882 | 1.23 | 0.918 | 0.969 | 0.981 | 0.691 | 0.653 | 0.516 | 0.588 |
| NCI-H2405 | 0.765 | 0.804 | 0.757 | 0.73 | 0.892 | 0.873 | – | 0.883 | 1 | 1.04 | 1.12 | 1.02 | 1.04 | 1.02 | 1.06 | 1.18 | 0.917 |
| NCI-H3122 | 0.506 | 0.514 | 0.447 | 0.444 | 1.05 | 1 | 1.06 | 1.01 | 1.04 | 0.838 | 0.856 | 0.916 | 0.866 | 0.985 | 0.887 | 1.02 | 1.14 |
| PC-3 [JPC-3] | 0.775 | 0.808 | 0.688 | 0.766 | 0.806 | 0.788 | 0.859 | 0.837 | 0.809 | 0.923 | 0.948 | 0.819 | 0.915 | 0.754 | 0.793 | 0.775 | 0.638 |
| PC-14 | 0.243 | 0.183 | 0.208 | 0.208 | 1.04 | 1.02 | 0.976 | 0.875 | 1.08 | 0.981 | 1.03 | 0.888 | 1.01 | 0.86 | 0.616 | 0.697 | 0.7 |
| RERF-LC-KJ | 0.617 | 0.615 | 0.398 | 0.48 | 0.944 | 1.04 | 0.773 | 1.17 | 0.791 | 0.821 | 0.832 | 0.81 | 0.833 | 0.62 | 0.601 | 0.485 | 0.416 |
| SK-LU-1 | 0.626 | 0.629 | 0.693 | 0.697 | 0.89 | 0.936 | 0.99 | 0.921 | 0.761 | 0.875 | 0.925 | 0.72 | 0.857 | 0.83 | 0.901 | 0.784 | 0.847 |
| SK-MES-1 | 0.346 | 0.337 | 0.375 | 0.395 | 1.22 | 1.22 | 1.18 | 1.22 | 1.2 | 0.913 | 1.06 | 0.937 | 1.08 | 1.04 | 1.06 | 1.05 | 1.04 |
| SW 1573 | 0.502 | 0.551 | 0.636 | 0.594 | 0.895 | 0.859 | 0.934 | 0.943 | 0.735 | 0.939 | 0.997 | 1.04 | 0.966 | 0.715 | 0.735 | 1.06 | 0.606 |
| UMC-11 | 0.603 | 0.687 | 0.618 | 0.635 | 0.323 | 0.288 | 0.323 | 0.29 | 0.3 | 1.03 | 1.09 | 1.13 | 1.07 | 0.37 | 0.478 | 0.469 | 0.362 |
